Reference: ChEMBL document CHEMBL5131473, “One-pot synthesis of oxoaporphines as potent antitumor agents and investigation of their mechanisms of actions” (Eur J Med Chem, 2022)
Active and inactive are the calls of the source. The calls are words filed in the database; no cut-off is given here.

How the values were obtained:
WI-38 [1] = assay: Cytotoxicity against human WI-38 cells by MTT assay; type: toxicity, cell-based
[2] = Toxicity in BALB/C nude mouse xenografted with human T24 cells assessed as effect on liver at 30 mg/kg, IG administered every 2 days for 14 days by H and E staining based assay; type: organism-based, T-24; details: in vivo, po, 336 h, time 14 day
[3] = Toxicity in BALB/C nude mouse xenografted with human T24 cells assessed as effect on lung at 30 mg/kg, IG administered every 2 days for 14 days by H and E staining based assay; type: organism-based, T-24; details: in vivo, po, 336 h, time 14 day
[4] = Toxicity in BALB/C nude mouse xenografted with human T24 cells assessed as effect on kidney at 30 mg/kg, IG administered every 2 days for 14 days by H and E staining based assay; type: organism-based, T-24; details: in vivo, po, 336 h, time 14 day
HepG2 = assay: Antiproliferative activity against human HepG2 cells assessed as cell growth inhibition measured after 48 hrs by MTT assay; type: functional, cell-based; details: HepG2, 48 h
MGC-803 = assay: Antiproliferative activity against human MGC-803 cells assessed as cell growth inhibition measured after 48 hrs by MTT assay; type: functional, cell-based; details: MGC-803, 48 h
T-24 [5] = assay: Antiproliferative activity against human T24 cells assessed as cell growth inhibition measured after 48 hrs by MTT assay; type: functional, cell-based; details: T-24, 48 h
SK-OV-3 = assay: Antiproliferative activity against human SK-OV-3 cells assessed as cell growth inhibition measured after 48 hrs by MTT assay; type: functional, cell-based; details: SK-OV-3, 48 h
WI-38 [6] = assay: Antiproliferative activity against human WI-38 cells assessed as cell growth inhibition measured after 48 hrs by MTT assay; type: functional, cell-based; details: WI-38, 48 h
T-24 [7] = assay: Cytotoxicity against human T24 cells assessed as decrease in cell viability measured after 48 hrs by MTT assay; type: toxicity, cell-based; details: t-24, 48 h, 20 µM, DDE = dose-dependent effect
T-24 [8] = assay: Induction of DNA damage in human T24 cells assessed as increase in gamma H2AX phosphorylation at 10 uM incubated for 24 hrs by Hoechst33258 staining based immunofluorescence assay; type: functional, cell-based
T-24 [9] = assay: Antitumor activity against human T24 cells xenografted in BALB/c nude mouse assessed as reduction in tumor volume at 30 mg/kg, IG administered every 2 days for 14 days; type: functional; details: time 14 day
T-24 [10] = assay: Antitumor activity against human T24 cells xenografted in BALB/c nude mouse assessed as tumor growth inhibition at 30 mg/kg, IG administered every 2 days for 14 days; type: functional; parameters: scale not given: the % may be the effect or the level left; details: time 14 day
[11] = Toxicity in BALB/C nude mouse xenografted with human T24 cells assessed as decrease in body weight at 30 mg/kg, IG administered every 2 days for 14 days; type: organism-based, T-24; details: in vivo, po, 336 h, time 14 day
[12] = Toxicity in BALB/C nude mouse xenografted with human T24 cells assessed as effect on heart at 30 mg/kg, IG administered every 2 days for 14 days by H and E staining based assay; type: organism-based, T-24; details: in vivo, po, 336 h, time 14 day
T-24 [13] = assay: Antitumor activity against human T24 cells xenografted in BALB/c nude mouse assessed as inhibition of tumor metastasis in liver at 30 mg/kg, IG administered every 2 days for 14 days; type: functional, organism-based; details: time 2.0 day
T-24 [14] = assay: Induction of cell cycle arrest in human T24 cells assessed as accumulation of cells at G1 phase at 10 uM incubated for 24 hrs by propidium iodide/RNase A staining based flow cytometry analysis (reference value: 51.71 %); type: functional
T-24 [15] = assay: Induction of apoptosis in human T24 cells assessed as late apoptotic cells at 15 uM incubated for 24 hrs by Annexin-V/PI staining based flow cytometry analysis (reference value: 0.543 %); type: functional
T-24 [16] = assay: Induction of apoptosis in human T24 cells assessed as viable cells at 15 uM incubated for 24 hrs by Annexin-V/PI staining based flow cytometry analysis (reference value: 94.3 %); type: functional; details: read-out: Activity
WI-38 [17] = assay: Induction of apoptosis in human WI-38 cells at IC50; type: toxicity, cell-based
T-24 [18] = assay: Inhibition of cell migration in human T24 cells assessed as recovery of wound area at 0.25 uM measured after 24 hrs by wound healing assay based fluorescence microscopy; type: functional; parameters: scale not given: the % may be the effect or the level left
T-24 [19] = assay: Induction of mitochondrial membrane potential dysfunction in human T24 cells assessed as change in morphology at 0.5 to 1 uM by Mitotracker green dye based fluorescence microscopy; type: functional, cell-based; details: dose 0.5-1 µM
T-24 [20] = assay: Induction of ROS accumulation in human T24 cells assessed as increase in intracellular ROS level at 0.5 uM by […] based flow cytometry; type: functional, cell-based
T-24 [21] = assay: Induction of cell cycle arrest in human T24 cells assessed as accumulation of cells at G1 phase at 0.5 uM incubated for 24 hrs by propidium iodide/RNase A staining based flow cytometry analysis (reference value: 51.71 %); type: functional
T-24 [22] = assay: Induction of apoptosis in human T24 cells assessed as viable cells at 1 uM incubated for 24 hrs by Annexin-V/PI staining based flow cytometry analysis (reference value: 94.3 %); type: functional; details: read-out: Activity
T-24 [23] = assay: Induction of apoptosis in human T24 cells assessed as necrotic cells at 2 uM incubated for 24 hrs by Annexin-V/PI staining based flow cytometry analysis (reference value: 1.92 %); type: functional
T-24 [24] = assay: Induction of apoptosis in human T24 cells assessed as late apoptotic cells at 2 uM incubated for 24 hrs by Annexin-V/PI staining based flow cytometry analysis (reference value: 0.543 %); type: functional
T-24 [25] = assay: Induction of apoptosis in human T24 cells assessed as early apoptotic cells at 2 uM incubated for 24 hrs by Annexin-V/PI staining based flow cytometry analysis (reference value: 3.27 %); type: functional
T-24 [26] = assay: Induction of apoptosis in human T24 cells assessed as viable cells at 2 uM incubated for 24 hrs by Annexin-V/PI staining based flow cytometry analysis (reference value: 94.3 %); type: functional; details: read-out: Activity
T-24 [27] = assay: Induction of mitochondrial membrane potential dysfunction in human T24 cells assessed as mitochondrial fragment condensation at 0.5 to 1 uM by mito-tracker green dye based fluorescence microscopy; type: functional, cell-based; details: dose 0.5-1 µM
T-24 [28] = assay: Induction of mitochondrial membrane potential dysfunction in human T24 cells assessed as depolarised cells at 2 uM incubated for 24 hrs by JC-1 staining based flow cytometry (reference value: 6.20%); type: functional
T-24 [29] = assay: Induction of mitochondrial membrane potential dysfunction in human T24 cells assessed as change in morphology at 2 to 4 uM by Mitotracker green dye based fluorescence microscopy; type: functional, cell-based; details: dose 2-4 µM
T-24 [30] = assay: Induction of apoptosis in human T24 cells assessed as increase in caspase 9 activity at 4 uM (Rvb= 7.2%); type: functional
T-24 [31] = assay: Induction of cell cycle arrest in human T24 cells assessed as accumulation of cells at S phase at 4 uM incubated for 24 hrs by propidium iodide/RNase A staining based flow cytometry analysis (reference value: 42.47 %); type: functional
T-24 [32] = assay: Induction of apoptosis in human T24 cells assessed as early apoptotic cells at 4 uM incubated for 24 hrs by Annexin-V/PI staining based flow cytometry analysis (reference value: 3.27 %); type: functional
T-24 [33] = assay: Induction of apoptosis in human T24 cells assessed as viable cells at 4 uM incubated for 24 hrs by Annexin-V/PI staining based flow cytometry analysis (reference value: 94.3 %); type: functional; details: read-out: Activity
T-24 [34] = assay: Induction of mitochondrial membrane potential dysfunction in human T24 cells assessed as disappearance of cristae at 2 uM incubated for 24 hrs by TEM analysis; type: functional, cell-based

| Compound | Activity (WI-38 [1]) | Activity [2] | Activity [3] | Activity [4] | IC50 (HepG2) [µM] | IC50 (MGC-803) [µM] | IC50 (T-24 [5]) [µM] | IC50 (SK-OV-3) [µM] | IC50 (WI-38 [6]) [µM] | Activity (T-24 [7]) | Activity (T-24 [9]) [mm3] | Activity (T-24 [10]) [%] | Activity [11] | Activity [12] | Activity (T-24 [13]) | Activity (WI-38 [17]) | Activity (T-24 [23]) [%] | Activity (T-24 [24]) [%] | Activity (T-24 [25]) [%] | viability at 2 µM (T-24 [26]) [%] | further results |
| --- | --- | --- | --- | --- | --- | --- | --- | --- | --- | --- | --- | --- | --- | --- | --- | --- | --- | --- | --- | --- | --- |
| O=C1c2ccccc2-c2cccc3ccnc1c23 | Non-Toxic | Non-Toxic | Non-Toxic | Non-Toxic | 12.3 | 12.6 | 9.5 | 37 | 20.2 | Dde | 722.033 | 40.8 | Non-Toxic | Non-Toxic | Active | Non-Toxic |  |  |  |  | Activity (T-24 [8]): Active; Activity (T-24 [14]): 31.45%; Activity (T-24 [15]): 6.56%; viability at 15 µM (T-24 [16]): 58% |
| O=C1c2ccccc2-c2ccc([N+](=O)[O-])c3ccnc1c23 | Non-Toxic | Non-Toxic | Non-Toxic | Non-Toxic | 1.3 | 1.1 | 0.5 | 8.9 | 14.8 | Dde | 605.28 | 49.5 | Non-Toxic | Non-Toxic | Active | Non-Toxic | 0.914 | 8.68 | 57.7 | 32.7 | Activity (T-24 [18]): 15.9%; Activity (T-24 [19]): Active; Activity (T-24 [20]): Active; Activity (T-24 [21]): 0.58%; viability at 1 µM (T-24 [22]): 52.6%; Activity (T-24 [27]): Active |
| O=C1c2cc([N+](=O)[O-])ccc2-c2ccc([N+](=O)[O-])c3ccnc1c23 | Non-Toxic | Non-Toxic | Non-Toxic | Non-Toxic | 2.2 | 2.3 | 2 | 16 | 20.4 | Dde | 846.52 | 30.7 | Non-Toxic | Non-Toxic | Active | Non-Toxic | 1.97 | 4.79 | 27.4 | 65.8 | Activity (T-24 [28]): 15.9%; Activity (T-24 [29]): Active; Activity (T-24 [30]): 28.9%; Activity (T-24 [31]): 70.53%; Activity (T-24 [32]): 32.3%; viability at 4 µM (T-24 [33]): 59.4%; Activity (T-24 [34]): Active |
